In test [1] the test system is glutathione S-transferase (GST). The note with it: DIO rats, 30 mg/kg, P≤0.05.
Test [2] has as its system glutathione peroxidase (GPx). The experiment in a line: Glutathione peroxidase (GPx) in DIO rats (anti-oxidant). In kind it is in vivo, rat. The note with it: 30 mg/kg, P≤0.01.

For `CCCCCCCCCCC[C@@H](C[C@@H]1OC(=O)[C@H]1CCCCCC)OC(=O)[C@H](CC(C)C)NC=O` [Orlistat], the “increase in GST as compared to DIO control group” value in test [1] is listed as 10.4%. The “increase in GPx as compared to DIO control group” value in test [2] came to 40.9%.
